Target: MASP-2 CCP2-SP (Homo sapiens (Human), UniProt O00187)
Test: MASP-2 co-crystallization, X-ray crystallography and structure analysis (H-bonds, van der Waals contacts);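 for Ligand-pharmacophore element distance, pharmacophore element C2: distance from averaged pharmacophore element to bound ligand; missing value means element absent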;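 for Ligand-pharmacophore element distance, pharmacophore element C3: distance from averaged pharmacophore element to bound ligand; missing value means element absent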;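 for Ligand-pharmacophore element distance, pharmacophore element C4: distance from averaged pharmacophore element to bound ligand; missing value means element absent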;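 for Ligand-pharmacophore element distance, pharmacophore element C5: distance from averaged pharmacophore element to bound ligand; missing value means element absent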
Design: van der Waals contact distance, MASP-2 HIS 483 atom CD2 / van der Waals contact distance, MASP-2 HIS 483 atom NE2 / van der Waals contact distance, SER 654 C to compound atom / van der Waals contact distance, SER 654 O to compound atom / van der Waals contact distance, TRP 655 C to compound atom / van der Waals contact distance, MASP-2 GLY 528 atom CA / van der Waals contact distance TRP 655 atom CZ3 / van der Waals contact distance TRP 655 atom N / van der Waals contact distance TRP 655 atom CE3 / van der Waals contact distance GLY 656 atom C / van der Waals contact distance GLY 656 atom CA / van der Waals contact distance GLY 656 atom O / van der Waals contact distance, MASP-2 TYR 607 atom CD1 / van der Waals contact distance, MASP-2 PRO 606 atom O / d(C3,CA1) / d(CA1,N1)2 / d(H4,O1) / d(H4,O2) / d(O1,O2) / d(CA1,O2) / d(CA6,O1) / d(CA6,O2) / d(CA1,C5) / d(O2,H3) / d(N2,C2) / d(CA5,N2) / d(N2,C4) / d(N2,C6) / d(N2,CA3) / d(N2,O3) / d(O4,H2): unit not given beside the values
Settings: for H-bond distance to MASP-2 ASP 627 atom OD2: ASP 627 OD2; for H-bond distance to MASP-2 GLY 656 atom N: GLY 656 N; for H-bond distance to MASP-2 GLY 656 atom O: GLY 656 O; for H-bond distance to MASP-2 SER 628 atom O: SER 628 O; for H-bond distance to MASP-2 SER 654 atom O: SER 654 O; for H-bond distance to MASP-2 SER 657 atom O: SER 657 O; for van der Waals contact distance, MASP-2 HIS 483 atom CD2 / van der Waals contact distance, MASP-2 HIS 483 atom NE2: Table A2-1; for van der Waals contact distance, MASP-2 TYR 607 atom CD1: Table A2-4; for van der Waals contact distance, VAL 653 CG1 to compound atom / van der Waals contact distance, SER 654 C to compound atom: Table A2-11; for van der Waals contact distance TRP 655 atom CE3: MASP-2 TRP 655 CE3, compound atom in line below; for van der Waals contact distance GLY 656 atom C: MASP-2 GLY 656 C
Outline: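 E. coli-expressed CCP2-SP (±6His); apo crystals soaked 1–2× in inhibitor-containing crystallization solution; optional 20% glycerol cryoprotection, LN2 flash-cool; synchrotron data at 1.0 wavelength; MR using 1Q3X portions, partial refinement; single pose analysed when several seen.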

[1] = Table A2-9, ARG 630, AA atoms CG, CZ
[2] = Table A5-1 pharmacophore: distance between elements, S2/S1 region
[3] = Table A5-2 pharmacophore distance, S3/S4 region
[4] = Table A7-1, between pharmacophore elements of the bound compound

Chain of MASP-2 CCP2-SP (O00187 445-686): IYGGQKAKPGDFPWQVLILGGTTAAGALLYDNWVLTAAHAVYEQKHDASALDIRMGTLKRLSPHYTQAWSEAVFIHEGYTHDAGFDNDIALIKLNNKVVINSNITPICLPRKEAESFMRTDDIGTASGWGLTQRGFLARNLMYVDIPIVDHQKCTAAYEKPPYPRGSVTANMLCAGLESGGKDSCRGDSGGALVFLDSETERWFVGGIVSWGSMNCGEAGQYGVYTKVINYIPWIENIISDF
Chain of MASP-2 CCP2-SP (O00187 364-432 partner): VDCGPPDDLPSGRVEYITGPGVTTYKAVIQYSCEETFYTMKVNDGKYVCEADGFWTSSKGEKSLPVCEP

Cc1nc(N)ccc1CNC(=O)[C@H](C)NC(=O)[C@H]1C[C@@H](c2cccc3ccccc23)CCN1 [compound 1297, (2R,4S)—N—((S)-1-(((6-Amino-2-methylpyridin-3-yl)methyl)amino)-1-oxopropan-2-yl)-4-(naphthalen-1-yl)piperidine-2-carboxamide]
H-bond distance to MASP-2 ASP 627 atom OD2 (Table A1 (H-Bonds)): 3.13
H-bond distance to MASP-2 GLY 656 atom N (Table A1 (H-Bonds)): 3.33
H-bond distance to MASP-2 GLY 656 atom O (Table A1 (H-Bonds)): 2.67
H-bond distance to MASP-2 SER 628 atom O (Table A1 (H-Bonds)): 2.96
H-bond distance to MASP-2 SER 654 atom O (Table A1 (H-Bonds)): 2.88
H-bond distance to MASP-2 SER 657 atom O (Table A1 (H-Bonds)): 3.06
van der Waals contact distance, MASP-2 HIS 483 atom CD2: 3.74
van der Waals contact distance, MASP-2 HIS 483 atom NE2: 3.84
van der Waals contact distance, MASP-2 GLY 528 atom CA (Table A2-2): 3.76
van der Waals contact distance, MASP-2 TYR 607 atom CD1: 3.81
van der Waals contact distance, MASP-2 amino acid atom to compound atom [1]: 3.47
van der Waals contact distance, VAL 653 CG1 to compound atom: 3.22
van der Waals contact distance, SER 654 O to compound atom (Table A2-12): 3.51
van der Waals contact distance, TRP 655 C to compound atom (Table A2-12): 3.89
van der Waals contact distance, TRP 655 CA to compound atom (Table A2-12): 3.49
van der Waals contact distance TRP 655 atom CE3 (Table A2-13): 3.54

C[C@H](NC(=O)[C@H]1C[C@H](Cc2ccccc2)CN1)C(=O)NCc1ccc(C(=N)N)cc1 [compound 1306, (2R,4S)-4-Benzyl-N—((S)-1-((4-carbamimidoylbenzyl)amino)-1-oxopropan-2-yl)pyrrolidine-2-carboxamide]
H-bond distance to MASP-2 ASP 627 atom OD2 (Table A1 (H-Bonds)): 2.6
H-bond distance to MASP-2 GLY 656 atom N (Table A1 (H-Bonds)): 3.05
H-bond distance to MASP-2 GLY 656 atom O (Table A1 (H-Bonds)): 2.69
H-bond distance to MASP-2 SER 628 atom O (Table A1 (H-Bonds)): 2.24
H-bond distance to MASP-2 SER 657 atom O (Table A1 (H-Bonds)): 2.87
van der Waals contact distance, MASP-2 HIS 483 atom CD2: 3.47
van der Waals contact distance, MASP-2 HIS 483 atom NE2: 3.32
van der Waals contact distance, MASP-2 PHE 529 atom CZ (Table A2-3): 3.63
van der Waals contact distance, MASP-2 TYR 607 atom CD1: 3.85
van der Waals contact distance, MASP-2 amino acid atom to compound atom (Table A2-9 second part, ARG 630, AA atoms N, NE, NH1): 3.76
van der Waals contact distance GLY 656 atom C (Table A2-13): 3.54
van der Waals contact distance GLY 656 atom CA (Table A2-13, MASP-2 GLY 656 CA): 3.61

Cc1nc(N)ccc1CNC(=O)[C@H](C)NC(=O)[C@H]1C[C@H](Cc2cccc(Cl)c2)CN1 [compound 1328, (2R,4S)—N—((S)-1-(((6-amino-2-methylpyridin-3-yl)methyl)amino)-1-oxopropan-2-yl)-4-(3-chlorobenzyl)pyrrolidine-2-carboxamide]
H-bond distance to MASP-2 GLY 656 atom N (Table A1 (H-Bonds)): 3.33
H-bond distance to MASP-2 GLY 656 atom O (Table A1 (H-Bonds)): 2.82
H-bond distance to MASP-2 SER 628 atom O (Table A1 (H-Bonds)): 3.06
H-bond distance to MASP-2 SER 654 atom O (Table A1 (H-Bonds)): 2.67
H-bond distance to MASP-2 SER 657 atom O (Table A1 (H-Bonds)): 2.44
van der Waals contact distance, MASP-2 HIS 483 atom CD2: 3.79
van der Waals contact distance, MASP-2 HIS 483 atom NE2: 3.73
van der Waals contact distance, MASP-2 PHE 529 atom CD1 (Table A2-3): 3.78
van der Waals contact distance, SER 654 C to compound atom: 3.62
van der Waals contact distance, VAL 653 CG1 to compound atom: 3.23
van der Waals contact distance TRP 655 atom CE3 (Table A2-13): 3.49
van der Waals contact distance TRP 655 atom CZ3 (Table A2-13, MASP-2 TRP 655 CZ3): 3.53

CC(=O)Nc1ccc(CCN[C@H](CCc2ccccc2)C(=O)N[C@@H](C)C(=O)NCc2ccc(C(=N)N)cc2)cc1 [compound 1345, (R)-2-((4-acetamidophenethyl)amino)-N—((S)-1-((4-carbamimidoylbenzyl)amino)-1-oxopropan-2-yl)-4-phenylbutanamide]
H-bond distance to MASP-2 ARG 630 atom NH1 (second bond) (Table A1 (H-Bonds), ARG 630 NH1): 2.37
H-bond distance to MASP-2 GLN 665 atom OE1 (Table A1 (H-Bonds), GLN 665 OE1): 2.63
H-bond distance to MASP-2 GLY 656 atom N (Table A1 (H-Bonds)): 3.05
H-bond distance to MASP-2 GLY 656 atom O (Table A1 (H-Bonds)): 3.13
H-bond distance to MASP-2 SER 628 atom O (Table A1 (H-Bonds)): 2.64
H-bond distance to MASP-2 SER 654 atom O (Table A1 (H-Bonds)): 3.02
H-bond distance to MASP-2 SER 657 atom O (Table A1 (H-Bonds)): 3.01
van der Waals contact distance, MASP-2 HIS 483 atom CD2: 3.69
van der Waals contact distance, MASP-2 HIS 483 atom NE2: 3.37
van der Waals contact distance, MASP-2 PHE 529 atom CZ (Table A2-3): 3.88
van der Waals contact distance, MASP-2 amino acid atom to compound atom [1]: 3.52
van der Waals contact distance, SER 654 C to compound atom: 3.84
van der Waals contact distance, SER 654 O to compound atom (Table A2-12): 3.75
van der Waals contact distance GLY 656 atom C (Table A2-13): 3.74

Cc1nc(N)ccc1CNC(=O)[C@H](C)NC(=O)[C@H]1C[C@@H](Cc2ccccc2)CCN1 [compound 1353, (2R,4S)—N—((S)-1-(((6-Amino-2-methylpyridin-3-yl)methyl)amino)-1-oxopropan-2-yl)-4-benzylpiperidine-2-carboxamide]
H-bond distance to MASP-2 ASP 627 atom OD2 (Table A1 (H-Bonds)): 3.17
H-bond distance to MASP-2 GLY 656 atom N (Table A1 (H-Bonds)): 3.15
H-bond distance to MASP-2 GLY 656 atom O (Table A1 (H-Bonds)): 2.85
H-bond distance to MASP-2 SER 654 atom O (Table A1 (H-Bonds)): 3
H-bond distance to MASP-2 SER 657 atom O (Table A1 (H-Bonds)): 2.91
van der Waals contact distance, MASP-2 HIS 483 atom CD2: 3.77
van der Waals contact distance, MASP-2 HIS 483 atom NE2: 3.67
van der Waals contact distance, MASP-2 PHE 529 atom CD2 (Table A2-3): 3.68
van der Waals contact distance, MASP-2 TYR 607 atom CD1: 3.75
van der Waals contact distance, MASP-2 amino acid atom to compound atom (Table A2-7: SER 628 (CB, O, OG)): 3.66
van der Waals contact distance, MASP-2 amino acid atom to compound atom [1]: 3.74
van der Waals contact distance, VAL 653 CG1 to compound atom: 3.3
van der Waals contact distance, TRP 655 CA to compound atom (Table A2-12): 3.3
Ligand-pharmacophore element distance, pharmacophore element C2 (Table A4-1, element C2): 0.58
Ligand-pharmacophore element distance, pharmacophore element C3 (Table A4-1, element C3): 0.13
Ligand-pharmacophore element distance, pharmacophore element C4 (Table A4-1, element C4): 0
Ligand-pharmacophore element distance, pharmacophore element C5 (Table A4-1, element C5): 0
Ligand-pharmacophore element distance, pharmacophore element C6 (Table A4-1, element C6): 0
Ligand-pharmacophore element distance, pharmacophore element C7 (Table A4-1, element C7): 0
Ligand-pharmacophore element distance, pharmacophore element CA1 (Table A4-1, element CA1): 0.61
Ligand-pharmacophore element distance, pharmacophore element CA2 (Table A4-1, element CA2): 0.5
Ligand-pharmacophore element distance, pharmacophore element CA3 (Table A4-1, element CA3): 0
Ligand-pharmacophore element distance, pharmacophore element CA4 (Table A4-1, element CA4): 0
Ligand-pharmacophore element distance, pharmacophore element CA5 (Table A4-1, element CA5): 0
Ligand-pharmacophore element distance, pharmacophore element CA6 (Table A4-1, element CA6): 0
d(C3,CA1) [2]: 2.85
d(CA1,N1)2 [2]: 1.36
d(CA1,O1) [2]: 4.38
d(CA1,O2) [2]: 3.79
d(H4,O1) [2]: 4.38
d(H4,O2) [2]: 3.72
d(O1,O2) [2]: 3.27
d(N2,C2) [3]: 1.45
d(N2,CA2) [3]: 6.50
d(O2,H3) [3]: 4.10
d(O2,N2) [3]: 2.69
a(C3, CA1, O1) (Table A6-1 pharmacophore angle): 149.99
a(CA1, O1, O2) (Table A6-1 pharmacophore angle): 103.61
a(O1, O2, H4) (Table A6-1 pharmacophore angle): 133.22
a(N1, CA1, O1) b) (Table A6-1 pharmacophore angle, Methyl-amino-pyridine compounds): 173.73
a(O1, O2, H3) (Table A6-2 pharmacophore angle): 146.74
a(O1, O2, N2) (Table A6-2 pharmacophore angle): 137.66
a(O2, N2, C2) (Table A6-2 pharmacophore angle): 130.69
a(O2, N2, CA2) (Table A6-2 pharmacophore angle): 157.19
Pharmacophore torsion angle a(C3, CA1, O1, H4) [4]: 23.38
Pharmacophore torsion angle a(H4, O1, O2, H3) [4]: 51.34
Pharmacophore torsion angle a(H4, O1, O2, N2) [4]: 136.30
Pharmacophore torsion angle a(N1, CA1, O1, H4) [4]: 3.14
Pharmacophore torsion angle a(O1, H4, O2, CA1) [4]: −84.72
Pharmacophore torsion angle a(O1, O2, N2, C2) [4]: 126.15
Pharmacophore torsion angle a(O1, O2, N2, CA2) (Table A7-2, between pharmacophore elements of the bound compound): 120.30
